SMILES strings stand for the structures. Like-named read-outs stand apart in the source and are kept apart here.

Experiment [1] has as its system experimental diabetic nephropathy model. To be noted: cited from earlier work.
The next experiment concerns CHOK1 parental cells. Put plainly: Cell adhesion assay, CHOK1 parental cells on fibronectin. To be noted: FIG. 11. It is filed as cell-based, hamster.
The next experiment has as its target T1, human αvβ1 (Homo sapiens, UniProt P05556+P06756).
T1 construct: expressed in transfected cells
Nature of the experiment: Latent TGFβ activation assay, TMLC / CHOK1-integrin co-culture (PAI-1 luciferase). It is filed as cell-based. To be noted: FIG. 5B. How it is done: (§1) Latent TGFβ activation assay. Transfected mink lung epithelial cell (TMLC) cell line containing the TGFβ responsive PAI-1 promoter driving luciferase expression (Mazzieri et al, Methods Mol. Biol. 142, 13-27 (2000)) and the CHO-K1 human and mouse αvβ×integrin cell lines were grown under optimized growth conditions to 90% confluency. TMLC cells were trypsinized and plated at 25,000 cells/well in 50 μL in Costar clear bottom white walled plates. In a separate plate, 25 μL of serially diluted antibodies at 4×concentration were added to wells containing 25 μL of either 25,000 cells of human or mouse αvβ×cells. After a brief mixing, the 50 μL mixture was transferred to the TMLC cell plates for a total volume of 100 μL and incubated at 37° C. for 16 hours. 100 μL of ONE-Glo kit (#PRE6120) was added to each well and read after three to five minutes on the Envision plate reader.

In a further experiment the target is T2, human αvβ6 (Homo sapiens, UniProt P06756+P18564).
T2 construct: expressed in transfected cells
The experiment is described as above. It is filed as cell-based. The settings on record: FIG. 5B. As to the method:
as §1

The target of the next experiment is T3, human αvβ8 (Homo sapiens, UniProt P06756+P26012).
T3 construct: expressed in transfected cells
The experiment is described as above. It is filed as cell-based. The settings on record: FIG. 5B. As to the method: as §1

The target in a further experiment is T4, mouse αvβ6 (Mus musculus, UniProt P43406+Q9Z0T9).
T4 construct: expressed in transfected cells
Described as above. It is filed as cell-based. To be noted: FIG. 5B. As to the method:
as §1

The target in the next experiment is T5, mouse αvβ1 (Mus musculus, UniProt P09055+P43406).
T5 construct: expressed in transfected cells
T5 sequence (P43406 31-1044): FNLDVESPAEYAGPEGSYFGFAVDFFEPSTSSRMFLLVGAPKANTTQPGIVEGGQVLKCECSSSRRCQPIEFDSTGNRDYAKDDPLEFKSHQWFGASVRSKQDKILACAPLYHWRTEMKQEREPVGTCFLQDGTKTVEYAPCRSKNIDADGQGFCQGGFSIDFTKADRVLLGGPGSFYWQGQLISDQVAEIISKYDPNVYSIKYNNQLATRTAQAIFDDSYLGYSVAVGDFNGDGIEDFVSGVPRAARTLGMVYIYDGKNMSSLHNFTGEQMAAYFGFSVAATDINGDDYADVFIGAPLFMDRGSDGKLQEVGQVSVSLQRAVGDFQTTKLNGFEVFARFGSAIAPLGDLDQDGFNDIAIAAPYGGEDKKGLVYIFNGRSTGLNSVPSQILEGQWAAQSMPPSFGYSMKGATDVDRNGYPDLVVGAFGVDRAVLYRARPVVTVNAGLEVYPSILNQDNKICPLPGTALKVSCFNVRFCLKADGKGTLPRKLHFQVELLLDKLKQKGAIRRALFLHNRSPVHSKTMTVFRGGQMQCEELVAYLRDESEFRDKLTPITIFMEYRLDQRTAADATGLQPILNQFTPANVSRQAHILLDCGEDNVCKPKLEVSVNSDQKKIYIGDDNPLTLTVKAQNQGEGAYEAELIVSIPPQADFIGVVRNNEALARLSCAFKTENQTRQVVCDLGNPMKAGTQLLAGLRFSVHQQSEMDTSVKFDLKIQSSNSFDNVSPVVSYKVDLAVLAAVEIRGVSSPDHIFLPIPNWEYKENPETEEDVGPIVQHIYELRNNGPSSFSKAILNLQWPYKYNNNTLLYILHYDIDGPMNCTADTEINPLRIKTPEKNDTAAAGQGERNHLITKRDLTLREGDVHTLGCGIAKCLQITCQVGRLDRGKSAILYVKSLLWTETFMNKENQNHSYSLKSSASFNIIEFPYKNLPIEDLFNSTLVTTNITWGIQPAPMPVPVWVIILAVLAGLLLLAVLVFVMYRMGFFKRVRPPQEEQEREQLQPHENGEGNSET
T5 sequence (P09055 21-798): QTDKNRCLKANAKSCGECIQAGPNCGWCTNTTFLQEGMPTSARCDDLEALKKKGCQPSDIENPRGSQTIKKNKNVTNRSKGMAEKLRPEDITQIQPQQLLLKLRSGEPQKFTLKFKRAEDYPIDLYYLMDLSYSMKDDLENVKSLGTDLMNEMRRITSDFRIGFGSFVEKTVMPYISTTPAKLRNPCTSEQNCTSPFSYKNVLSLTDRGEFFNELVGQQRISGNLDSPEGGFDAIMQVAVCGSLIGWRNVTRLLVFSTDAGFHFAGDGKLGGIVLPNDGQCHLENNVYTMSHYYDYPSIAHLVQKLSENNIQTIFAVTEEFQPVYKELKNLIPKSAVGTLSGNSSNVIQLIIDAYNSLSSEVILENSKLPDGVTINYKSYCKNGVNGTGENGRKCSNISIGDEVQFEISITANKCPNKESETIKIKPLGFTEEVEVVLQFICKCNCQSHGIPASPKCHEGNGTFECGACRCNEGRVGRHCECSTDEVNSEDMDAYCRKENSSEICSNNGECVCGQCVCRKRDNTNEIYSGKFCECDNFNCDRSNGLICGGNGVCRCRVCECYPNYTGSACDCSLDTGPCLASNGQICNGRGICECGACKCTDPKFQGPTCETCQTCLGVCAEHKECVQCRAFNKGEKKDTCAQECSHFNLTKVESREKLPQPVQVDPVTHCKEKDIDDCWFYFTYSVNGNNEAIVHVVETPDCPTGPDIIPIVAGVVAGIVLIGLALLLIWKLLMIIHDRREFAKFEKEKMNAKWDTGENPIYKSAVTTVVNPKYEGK
The description is as above. It is filed as cell-based. The settings on record: FIG. 5B. How it is done:
as §1

In a further experiment the target is T6, hαvβ1 (Homo sapiens, UniProt P05556+P06756).
T6 construct: The full extracellular domains for all α and β integrin subunits; (GGGS)3 linker (C); acidic coiled-coil with cysteine (C); GG-Avitag (C); hexa-histidine tag (C); basic coiled-coil with cysteine (C); made in house; host or cells: Expi293 cells
T6 sequence (P06756 31-992 limits assumed): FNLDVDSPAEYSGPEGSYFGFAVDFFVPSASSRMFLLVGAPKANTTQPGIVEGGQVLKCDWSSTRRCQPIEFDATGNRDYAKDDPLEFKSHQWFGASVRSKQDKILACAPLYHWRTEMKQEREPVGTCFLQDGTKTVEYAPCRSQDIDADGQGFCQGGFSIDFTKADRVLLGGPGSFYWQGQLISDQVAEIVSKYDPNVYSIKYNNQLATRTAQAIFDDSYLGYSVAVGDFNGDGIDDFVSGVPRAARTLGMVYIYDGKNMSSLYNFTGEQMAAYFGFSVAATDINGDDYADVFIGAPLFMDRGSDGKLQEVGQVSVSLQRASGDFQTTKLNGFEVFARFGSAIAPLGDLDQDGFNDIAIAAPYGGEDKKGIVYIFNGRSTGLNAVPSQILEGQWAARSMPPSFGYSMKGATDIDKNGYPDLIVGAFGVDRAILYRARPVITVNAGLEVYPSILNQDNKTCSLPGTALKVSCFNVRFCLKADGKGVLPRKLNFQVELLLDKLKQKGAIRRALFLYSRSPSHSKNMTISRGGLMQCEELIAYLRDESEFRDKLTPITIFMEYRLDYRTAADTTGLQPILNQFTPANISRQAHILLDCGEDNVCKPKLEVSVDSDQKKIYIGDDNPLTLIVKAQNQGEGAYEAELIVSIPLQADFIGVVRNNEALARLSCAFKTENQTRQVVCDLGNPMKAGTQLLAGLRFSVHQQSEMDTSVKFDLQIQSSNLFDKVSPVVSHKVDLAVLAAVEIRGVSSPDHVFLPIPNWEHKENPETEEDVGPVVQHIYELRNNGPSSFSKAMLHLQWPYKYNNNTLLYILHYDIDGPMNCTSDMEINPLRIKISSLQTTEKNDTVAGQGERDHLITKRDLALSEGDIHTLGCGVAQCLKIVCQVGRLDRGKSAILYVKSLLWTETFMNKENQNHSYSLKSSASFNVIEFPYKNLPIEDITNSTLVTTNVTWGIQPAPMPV
T6 sequence (P05556 21-728 limits assumed): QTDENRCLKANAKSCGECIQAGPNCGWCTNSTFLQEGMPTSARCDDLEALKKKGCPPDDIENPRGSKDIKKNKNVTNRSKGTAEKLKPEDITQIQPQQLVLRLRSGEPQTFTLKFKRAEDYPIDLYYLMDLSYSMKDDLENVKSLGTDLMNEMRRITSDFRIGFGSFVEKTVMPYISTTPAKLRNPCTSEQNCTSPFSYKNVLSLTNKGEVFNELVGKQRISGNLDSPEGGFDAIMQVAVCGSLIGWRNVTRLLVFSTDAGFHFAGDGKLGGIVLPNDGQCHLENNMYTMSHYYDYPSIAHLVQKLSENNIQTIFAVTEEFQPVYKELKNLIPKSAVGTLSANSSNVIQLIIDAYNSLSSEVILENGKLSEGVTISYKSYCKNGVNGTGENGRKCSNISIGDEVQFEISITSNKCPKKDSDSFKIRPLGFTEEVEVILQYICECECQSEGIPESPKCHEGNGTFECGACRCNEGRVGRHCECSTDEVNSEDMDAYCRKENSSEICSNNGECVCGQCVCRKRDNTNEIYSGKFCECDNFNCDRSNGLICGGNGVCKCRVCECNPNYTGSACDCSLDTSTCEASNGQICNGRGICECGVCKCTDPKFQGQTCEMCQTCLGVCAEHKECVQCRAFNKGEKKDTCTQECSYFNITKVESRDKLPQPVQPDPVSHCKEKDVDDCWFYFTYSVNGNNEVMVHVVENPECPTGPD
Nature of the experiment: Human AlphaLISA integrin-ligand blocking assay (fibronectin). It is filed as biochemical. As to the method: (§2) Integrin AlphaLISA assay. In the AlphaLISA integrin assays, we used a HEPES based buffer (25 mM HEPES pH 7.4, 137 mM NaCl, 1 mM MgCl2, 1 mM MnCl2, 2 mM CaCl2, 2.7 mM KCl, and 0.05% Tween 20). Optimal assay conditions were determined with a titration of the reagents for signal noise ratio (S/N), linear range, etc. For the respective integrins, we used the final concentrations described in Table 9.
(§3) Briefly, the testing antibody (8 μL) was added as a 4×(of Final testing concentration) solution in the HEPES buffer described previously into a 384w AlphaPlate™ (Perkin Elmer #6005350). Then the integrin and ligand were added sequentially as 8×(4 μL each). Plates were sealed and incubated at room temperature for two hours. Then 4×acceptor bead solution ([…]) was added, and the plates were resealed and incubated at room temperature (RT) for one hour. Finally, 4×([…]) donor beads solution was added in a darkened room and incubated for 45 minutes at room temperature. Plates were read on the Envision (Perkin Elmer) in AlphaScreen™ mode within three hours of donor bead addition.
Background: Bead proximity is the source of the signal in Alpha formats.

In the next experiment the target is T7, hα5β1 (Homo sapiens, UniProt P05556+P08648).
T7 construct: The full extracellular domains for all α and β integrin subunits; (GGGS)3 linker (C); acidic coiled-coil with cysteine (C); GG-Avitag (C); hexa-histidine tag (C); basic coiled-coil with cysteine (C); made in house; host or cells: Expi293 cells
T7 sequence (P08648 42-995 limits assumed): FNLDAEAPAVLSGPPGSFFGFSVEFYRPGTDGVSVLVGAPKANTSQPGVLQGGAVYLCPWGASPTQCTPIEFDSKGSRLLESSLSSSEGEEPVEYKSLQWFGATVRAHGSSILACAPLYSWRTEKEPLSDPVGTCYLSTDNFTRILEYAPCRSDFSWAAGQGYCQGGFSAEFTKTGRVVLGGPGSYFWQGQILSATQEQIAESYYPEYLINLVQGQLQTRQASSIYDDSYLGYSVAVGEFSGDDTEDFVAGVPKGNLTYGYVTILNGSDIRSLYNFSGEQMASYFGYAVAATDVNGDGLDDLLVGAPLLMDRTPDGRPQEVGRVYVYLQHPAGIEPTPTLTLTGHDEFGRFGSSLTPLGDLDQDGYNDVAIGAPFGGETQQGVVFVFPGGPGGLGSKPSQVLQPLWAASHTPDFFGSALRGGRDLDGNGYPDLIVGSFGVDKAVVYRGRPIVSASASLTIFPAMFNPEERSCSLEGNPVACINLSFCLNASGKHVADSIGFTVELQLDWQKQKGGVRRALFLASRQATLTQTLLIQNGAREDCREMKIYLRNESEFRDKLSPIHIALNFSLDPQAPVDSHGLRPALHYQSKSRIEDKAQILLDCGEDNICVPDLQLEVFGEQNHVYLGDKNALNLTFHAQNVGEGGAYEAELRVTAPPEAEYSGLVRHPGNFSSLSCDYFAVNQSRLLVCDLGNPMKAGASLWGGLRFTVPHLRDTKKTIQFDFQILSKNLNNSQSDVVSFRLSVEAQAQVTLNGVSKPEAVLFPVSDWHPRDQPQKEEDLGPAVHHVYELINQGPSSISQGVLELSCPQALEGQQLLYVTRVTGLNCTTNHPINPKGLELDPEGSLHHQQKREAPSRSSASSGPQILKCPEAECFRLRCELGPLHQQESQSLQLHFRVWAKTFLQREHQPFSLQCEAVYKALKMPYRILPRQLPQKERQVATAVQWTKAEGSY
T7 sequence (P05556 21-728 limits assumed): as the sequence (P05556 21-728 limits assumed) above
The description is as above. It is filed as biochemical. As to the method: as §2, §3

For another experiment, the target named is T8, mαvβ8 (Mus musculus, UniProt P43406+Q0VBD0).
T8 construct: The full extracellular domains for all α and β integrin subunits; (GGGS)3 linker (C); acidic coiled-coil with cysteine (C); GG-Avitag (C); hexa-histidine tag (C); basic coiled-coil with cysteine (C); made in house; host or cells: Expi293 cells
Nature of the experiment: Mouse AlphaLISA integrin-ligand blocking assay (LAP). To be noted: Table 12; read-out: IC50 Mouse integrin AlphaLISA assays mαvβ8. It is filed as biochemical. As to the method: as §2, §3

In the next experiment the target is T9, mαvβ6 (Mus musculus, UniProt P43406+Q9Z0T9).
T9 construct: The full extracellular domains for all α and β integrin subunits; (GGGS)3 linker (C); acidic coiled-coil with cysteine (C); GG-Avitag (C); hexa-histidine tag (C); basic coiled-coil with cysteine (C); made in house; host or cells: Expi293 cells
The description is as above. It is filed as biochemical. To be noted: Table 12; read-out: IC50 Mouse integrin AlphaLISA assays mαvβ6. As to the method:
as §2, §3

Consider `COc1ccc([C@H](CC(=O)O)N2CCN(CCCc3ccc4c(n3)NCCC4)C2=O)cn1` [MK-0429, (3S)-3-(6-methoxypyridin-3-yl)-3-[2-oxo-3-[3-(5,6,7,8-tetrahydro-1,8-naphthyridin-2-yl)propyl]imidazolidin-1-yl]propanoic acid], for which the proteinuria result in experiment [1] is “reduces”. The renal fibrosis result in experiment [1] is reported as “reduces”. Moreover, in the experiment on CHOK1 parental cells, the “inhibition of adhesion of CHOK1 parental cells on fibronectin” value is listed as “little inhibitory activity”. The “inhibition of latent TGFβ activation, human αvβ1 co-culture” value on human αvβ1 is listed as “strong inhibitory effect”. At human αvβ6, the “inhibition of latent TGFβ activation, human αvβ6 co-culture” value is reported as “strong inhibitory effect”. Besides, on human αvβ8, the “inhibition of latent TGFβ activation, human αvβ8 co-culture” value is “strong inhibitory effect”. In addition, the “inhibition of latent TGFβ activation, mouse αvβ6 co-culture” value against mouse αvβ6 is reported as “strong inhibitory effect”. Further, the “inhibition of latent TGFβ activation, mouse αvβ1 co-culture” value on mouse αvβ1 was “strong inhibitory effect”. For the same compound, the IC50 on hαvβ1 (FIG. 3D, curve-fitted, read-out: IC50 against human αvβ1, AlphaLISA) was 0.46 nM; at hαvβ1 (Table 11, read-out: IC50 Human integrin AlphaLISA assays hαvβ1), 1 nM; at hα5β1 (FIG. 3D, curve-fitted, read-out: IC50 against human αvβ1 (as printed, sixth integrin listed), AlphaLISA), 17.3 nM; on hα5β1 (Table 11, read-out: IC50 Human integrin AlphaLISA assays hα5β1), 26.5 nM; at mαvβ8, 5.3 nM; at mαvβ6, 0.4 nM.

A word on the IC50: it is the midpoint of a concentration-inhibition curve.

The values are drawn from patent US20250313635A1, “ANTI-INTEGRIN ANTIBODIES AND USES THEREOF” (Merck Sharp & Dohme LLC, priority 2022, published 2025).
